From patent publication EP2706118A1, “Method for the production of primary amines” (BASF SE, priority 2012, dated 2014)

Assay: Solubility in the aqueous reaction mixture (remark in reaction conditions)
Assay type: physicochemical
Conditions: ~10 mM in 20 mM bicine-buffer (pH 8.8), used an emulsion
Description: • ~10 mM BDG-Aldehyde (very low solubility, used an emulsion) • 10 mM L-alanine • 20 mM bicine-buffer (pH 8.8) • Cv ω-TA (0.75 mg) • Total volume: 1 ml • c) The conversion of BDG-alcohol to BDG-amine by ADH + ω-TAs was confirmed by LC-MS (Figure 3 C) and thin layer chromatography (Figure 4, lanes 1-3).

CCCCOCCOCC=O [BDG-Aldehyde]
solubility: very low
